This assay addresses T1, human TLR9 (Homo sapiens, UniProt Q9NR96).
T1 sequence (Q9NR96 26-1032): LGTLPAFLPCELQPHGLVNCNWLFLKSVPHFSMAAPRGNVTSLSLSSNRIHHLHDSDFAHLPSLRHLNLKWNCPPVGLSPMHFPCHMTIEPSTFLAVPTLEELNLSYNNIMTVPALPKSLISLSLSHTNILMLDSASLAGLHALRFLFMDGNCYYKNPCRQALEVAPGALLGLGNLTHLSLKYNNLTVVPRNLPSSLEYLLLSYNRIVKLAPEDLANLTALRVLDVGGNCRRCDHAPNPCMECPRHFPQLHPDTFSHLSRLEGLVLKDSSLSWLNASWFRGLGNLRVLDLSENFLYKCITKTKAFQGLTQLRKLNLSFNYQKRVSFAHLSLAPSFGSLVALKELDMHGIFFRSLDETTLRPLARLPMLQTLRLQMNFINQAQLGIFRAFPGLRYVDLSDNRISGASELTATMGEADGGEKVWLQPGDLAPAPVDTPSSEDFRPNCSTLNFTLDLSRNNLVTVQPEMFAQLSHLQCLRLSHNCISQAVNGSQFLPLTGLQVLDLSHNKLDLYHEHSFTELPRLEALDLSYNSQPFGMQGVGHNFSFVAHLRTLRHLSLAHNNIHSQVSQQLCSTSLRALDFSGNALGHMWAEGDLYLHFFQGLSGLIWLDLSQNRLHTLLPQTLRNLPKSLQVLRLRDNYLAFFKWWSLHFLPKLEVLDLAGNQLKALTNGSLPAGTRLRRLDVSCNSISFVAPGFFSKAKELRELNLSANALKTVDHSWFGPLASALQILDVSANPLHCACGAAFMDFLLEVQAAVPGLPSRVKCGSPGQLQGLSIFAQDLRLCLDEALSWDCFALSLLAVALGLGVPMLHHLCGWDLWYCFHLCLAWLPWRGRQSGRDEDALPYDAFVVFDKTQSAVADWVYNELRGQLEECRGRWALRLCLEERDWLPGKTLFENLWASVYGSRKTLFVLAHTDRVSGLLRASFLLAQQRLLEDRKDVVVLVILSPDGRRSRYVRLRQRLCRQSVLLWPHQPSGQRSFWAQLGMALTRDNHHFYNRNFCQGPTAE
Briefly: HEK293-Blue-hTLR-9 cells assay. It counts as cell-based. The conditions noted are these: HEK293-Blue-hTLR9 cells, ODN2006 stimulation, 20 hrs, SEAP reporter; read-out: HEK/hTLR9 IC50. Put shortly: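 Antagonist mode in HEK293-Blue hTLR9 reporter cells (SEAP under NF-κB/AP-1 sites), stimulated with ODN2006 added from a 20 uM solution. Serially diluted compound (1% DMSO final) was incubated 20 hrs at 37° C. Supernatant SEAP was developed with QUANTI-Blue for 2 h at 37° C and read at 620˜655 nm.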

For the compound `C[C@@H]1CN(c2ccc(C#N)c3ncccc23)C[C@@H]2c3cc(F)c(N4CC5(CNC5)C4)cc3CN12` [Example 84, 5-[(4R,10bS)-8-(2,6-diazaspiro[3.3]heptan-2-yl)-9-fluoro-4-methyl-3,4,6,10b-tetrahydro-1H-pyrazino[2,1-a]isoindol-2-yl]quinoline-8-carbonitrile], the IC50 amounted to 186 nM. For `CO[C@@H]1CNC[C@H]1Nc1cc2c(cc1C)[C@H]1CN(c3ccc(C#N)c4ncccc34)C[C@@H](C)N1C2` [Example 63, 5-[(4R,10bS)-8-[[(3R,4R)-4-methoxypyrrolidin-3-yl]amino]-4,9-dimethyl-3,4,6,10b-tetrahydro-1H-pyrazino[2,1-a]isoindol-2-yl]quinoline-8-carbonitrile] the value was 72.7 nM; for `C[C@@H]1CN(c2ccc(C(F)(F)F)c3nccnc23)C[C@@H]2c3ccc(N[C@H]4CNC[C@H]4F)cc3CN12` [Example 77, (4R,10bS)—N-[(3S,4R)-4-fluoropyrrolidin-3-yl]-4-methyl-2-[8-(trifluoromethyl)quinoxalin-5-yl]-3,4,6,10b-tetrahydro-1H-pyrazino[2,1-a]isoindol-8-amine], 141 nM. The value for `C[C@@H]1CN(c2ccc(C#N)c3ncccc23)C[C@@H]2c3cccc(NCCN4CC[C@H](O)C4)c3CN12` [Example 80, 5-[(4R,10bS)-7-[2-[(3S)-3-hydroxypyrrolidin-1-yl]ethylamino]-4-methyl-3,4,6,10b-tetrahydro-1H-pyrazino[2,1-a]isoindol-2-yl]quinoline-8-carbonitrile] was 63.6 nM.

As to `C[C@@H]1CN(c2ccc(C#N)c3ncccc23)C[C@@H]2c3ccc(N[C@H]4CNCCOC4)cc3CN12` [Example 56B, 5-[(4R,10bS)-4-methyl-8-[[(6S)-1,4-oxazepan-6-yl]amino]-3,4,6,10b-tetrahydro-1H-pyrazino[2,1-a]isoindol-2-yl]quinoline-8-carbonitrile], the IC50 came out at 92.1 nM. The value for `[2H]c1ccc2c(N3C[C@@H](C)N4Cc5cc(N6CC7(CNCCO7)C6)ccc5[C@H]4C3)ccc(C#N)c2n1` [Example 90, 5-[(4R,10bS)-4-methyl-8-(5-oxa-2,8-diazaspiro[3.5]nonan-2-yl)-3,4,6,10b-tetrahydro-1H-pyrazino[2,1-a]isoindol-2-yl]-2-deuterio-quinoline-8-carbonitrile] was 164 nM; that for `Cc1ccc(N2C[C@@H](C)N3Cc4cc(N[C@H]5CNC[C@H]5F)ccc4[C@H]3C2)c2nccnc12` [Example 76, (4R,10bS)—N-[(3S,4R)-4-fluoropyrrolidin-3-yl]-4-methyl-2-(8-methylquinoxalin-5-yl)-3,4,6,10b-tetrahydro-1H-pyrazino[2,1-a]isoindol-8-amine] was 150 nM. Take `CO[C@@H]1CNC[C@@H]1Nc1ccc2c(c1)CN1[C@H](C)CN(c3ccc(C#N)c4ncccc34)C[C@H]21` [Example 60, 5-[(4R,10bS)-8-[[(3S,4R)-4-methoxypyrrolidin-3-yl]amino]-4-methyl-3,4,6,10b-tetrahydro-1H-pyrazino[2,1-a]isoindol-2-yl]quinoline-8-carbonitrile]: the IC50 was 113 nM.

On to `CO[C@H]1CNC[C@@H]1N(C)c1ccc2c(c1)CN1[C@H](C)CN(c3ccc(C#N)c4ncccc34)C[C@H]21` [Example 64, 5-[(4R,10bS)-8-[[(3S,4S)-4-methoxypyrrolidin-3-yl]-methyl-amino]-4-methyl-3,4,6,10b-tetrahydro-1H-pyrazino[2,1-a]isoindol-2-yl]quinoline-8-carbonitrile], for which the IC50 came out at 125 nM. In the case of `C[C@@H]1CN(c2ccc(C#N)c3ncccc23)C[C@@H]2c3cccc(N[C@H]4CNC[C@H]4F)c3CN12` [Example 81, 5-[(4R,10bS)-7-[[(3S,4R)-4-fluoropyrrolidin-3-yl]amino]-4-methyl-3,4,6,10b-tetrahydro-1H-pyrazino[2,1-a]isoindol-2-yl]quinoline-8-carbonitrile], the IC50 was determined as 126 nM.

Turning to `C[C@@H]1CN(c2ccc(C#N)c3ncccc23)C[C@@H]2c3ccc(N4CCNCC4)cc3CN12` [Example 1, 5-[(4R,10bS)-4-methyl-8-piperazin-1-yl-3,4,6,10b-tetrahydro-1H-pyrazino[2,1-a]isoindol-2-yl]quinoline-8-carbonitrile], the IC50 is 106 nM.

Values taken from patent publication US12157746B2, “Tetrahydro-1H-pyrazino[2,1-a]isoindolylquinoline compounds for the treatment of autoimmune disease” (F. HOFFMANN-LA ROCHE AG, priority 2018, dated 2024).
